Measurements from patent US8710067B2, “Method for the treatment, alleviation of symptoms of, relieving, improving and preventing a cognitive disease, disorder or condition” (Alcobra Ltd., priority 2009, dated 2014).

What was measured:
[1] = tested on: abstinent chronic alcoholic; conditions: abstinent chronic alcoholics, after 1-2 months of abstinence; control group given vitamin B6; cited from earlier work
[2] = tested on: animals with alcohol intake; conditions: animal studies, cited from earlier work
ADHD/ADD adult patients [3] = experiment: TOVA (Test of Variables of Attention) in ADHD/ADD adult patients (Example 2); type: in vivo, human; conditions: n = 12; Bonferroni adjustment; NS, p 0.258
Procedure: (§1) 38 ADHD/ADD adult patients (age 18-45) of ADHD unit of the Geha Mental Health Center (Israel) were tested.
(§2) A total of four tablets were administered to each patient: • Two tablets of immediate release (IR) formulation (defined in Table 4) and • Two tablets of slow release (SR) formulation (defined in Table 5).
(§3) Tests at inclusion included selection of patients, and included clinical diagnosis by DSM IV, psychiatric examination, WURS & ASRS questionnaires, TOVA (Test of Variables of Attention) score, Wechsler (Wechsler Adult Intelligence Scale) subtests, BDI (Beck Depression Inventory) and STAI (State-Trait Anxiety Inventory) questionnaire.
The TOVA is a computerized test developed to assess attention and impulsivity in normal and clinical populations. Main outcome measures for the TOVA are the Omission Standard Score (SS; inattention measure) the Commission Standard Score (SS; measure of impulse control), the Response Time (RT) SS, the Variability in RT SS, and overall ADHD SS (a composite score of the previous submeasures).
(§4) The Primary outcome measure was the ADHD Score, TOVA Omission, TOVA Commission, TOVA RT and TOVA Variability analysed as Standard Score in % compared to the patient's prior performance of the TOVA test at baseline. Secondary outcome measures were Subtests from Weschler: Digit span, Symbol Search, Digit symbol.

[4] = tested on: frontoparietal cortex of guinea pigs; conditions: cited from earlier work
ADHD/ADD adult patients [5] = experiment: Wechsler subtests in ADHD/ADD adult patients (Example 2); type: in vivo, human; conditions: single dose 1400 mg, 90 minutes after dosing
Procedure: as §1, §2, §3, §4

humans = conditions: long term data; cited from earlier work
[6] = Pharmacokinetics after single administration to fasted healthy subjects (Example 1); type: in vivo, human
Source text: The above mentioned formulations were given to fasted healthy patients. Blood samples were collected following a predetermined time schedule in order to characterize formulation adsorption and elimination.

[7] = cited from earlier work

Structure (SMILES): Cc1ncc(CO)c(CO)c1O.O=C1CC[C@@H](C(=O)O)N1 [Metadoxine, pyridoxine L-2-pyrrolidone-5-carboxylate]
- recovery of short-term memory [1]: helps recovery of short-term memory
- increased production of fatty acid esters in the liver ([2]; during chronic alcohol intake): inhibited
- oxidative stress and glutathione depletion in hepatic tissues [2]: reduced oxidative stress and prevented glutathione depletion
- ADHD Score, Mean Difference, comparison with (3) Metadoxine 1400 mg, other group not given (ADHD/ADD adult patients [3]): +3.687 NS
- level of GABA and acetylcholine [4]: increased
- cognitive functions in the ADHD adult population (Wechsler subtests overall) (ADHD/ADD adult patients [5]): confirmed the ability of Metadoxine to improve cognitive functions
- safety for use by humans (humans): safe for use by humans
- time to maximal concentration ([6]; FIG. 1, immediate/slow release formulations, fasted healthy subjects): about 0.5 hour
- dose-linearity for Cmax and AUC ([6]; single administration, dose range 700 to 2100 mg, healthy Caucasian subjects): dose-linearity was demonstrated
- mean half life in human serum ([7]; Lu Yuan et al.): about 0.8 hour
- half life in human serum ([7]; oral and intravenous administration, no appreciable differences): 40 to 60 min
- bioavailability ([7]; oral): 60-80%
